Tested on: acetyl choline or histamine induced bronchospasm
Test: Duration of action: inhibition of acetyl choline or histamine induced bronchospasm by equiactive i.v. doses
Format: in vivo
Conditions: anaesthetised guinea-pigs
From the text: We prefer the B₂ selective bronchodilator to be long acting. By the term 'long acting' we mean that the compound has a longer duration of action as a relaxant of bronchial smooth muscle in pharmacological tests than does isoprenaline or orciprenaline. For duration of action studies, a comparison is made of the effect of equiactive i.v. doses as inhibitors of acetyl choline or histamine induced bronchospasm in anaesthetised guinea-pigs. The duration of action of isoprenaline in such a test is relatively short (control response back to normal in 10 to 25 minutes). In the case of a compound with a longer duration of action, the control response would only return to normal over a several-fold longer period of time.

For `CC(C)NCC(O)c1ccc(O)c(O)c1` (stereo not shown) [isoprenaline], the “duration of action (control response back to normal)” value was 10 to 25 min.
